Here are results for 92 molecules from PubChem BioAssay AID1259321 (Sanford-Burnham Center for Chemical Genomics, 2017).

Calls of active or inactive are those of the source.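 Rule for the calls: active = half-maximal concentration for changing protein binding to DNA, from the fitted dose curve, below 10 micromolar; inactive = the rest.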

In this experiment the target is Nuclear receptor subfamily 1 group D member 1 (Homo sapiens) (UniProt P20393). In words: Rev-erbα–DNA interaction modulators – biochemical, FITC-DNA, fluorescence polarization, dose response (AID 1259321). As to conditions: Rev-erb alpha-FITC-DNA binding.
Nuclear receptor subfamily 1 group D member 1 (Homo sapiens), sequence (P20393 whole entry, looked up): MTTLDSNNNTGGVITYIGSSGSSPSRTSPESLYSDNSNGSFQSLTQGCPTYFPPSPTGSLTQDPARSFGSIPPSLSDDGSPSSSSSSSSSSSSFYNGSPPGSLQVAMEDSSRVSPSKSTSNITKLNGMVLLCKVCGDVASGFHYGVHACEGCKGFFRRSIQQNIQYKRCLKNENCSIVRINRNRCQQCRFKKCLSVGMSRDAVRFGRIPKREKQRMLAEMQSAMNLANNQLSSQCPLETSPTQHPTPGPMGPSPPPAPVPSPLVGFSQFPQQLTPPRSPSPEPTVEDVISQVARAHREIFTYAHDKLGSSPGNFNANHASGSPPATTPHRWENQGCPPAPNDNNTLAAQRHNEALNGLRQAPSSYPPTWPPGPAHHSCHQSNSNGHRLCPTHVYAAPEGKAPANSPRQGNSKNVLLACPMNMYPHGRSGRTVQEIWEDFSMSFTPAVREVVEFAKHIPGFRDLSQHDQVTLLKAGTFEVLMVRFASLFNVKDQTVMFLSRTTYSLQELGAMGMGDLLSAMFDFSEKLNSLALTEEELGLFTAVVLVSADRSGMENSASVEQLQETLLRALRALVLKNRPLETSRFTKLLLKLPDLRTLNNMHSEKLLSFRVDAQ

In general, IC50 refers to the concentration needed to halve the response being measured. Regarding `COc1ccc(N2C(=O)c3cccc4c(N(C)CCO)ccc(c34)C2=O)cc1`, the IC50 result is “inactive”. To `O=C(Nc1nc(-c2ccccc2)c(C(=O)c2ccccc2)s1)c1ccc(S(=O)(=O)N2CCCCC2)cc1` belongs 0.541 µM. With `COc1cc(-c2nn3c(COc4ccccc4)nnc3s2)cc(OC)c1OC`, the IC50 was 2.99 µM. Under `O=C(c1cccs1)N1C(=O)c2cccc3cccc1c23` stands 4.29 µM; under `CCN(CC)c1ccc(-c2c(C#N)c(N)nc(OC)c2C#N)cc1`, > 40 µM (inactive).

In the case of `COc1ccc2nc(SC)c(C#N)cc2c1`, the IC50 entry was “inactive”. As to `COc1ccc(C2C(C#N)=C(C)NC3=C2C(=O)c2ccccc23)cc1` (configuration not stated), the IC50 result is “inactive”. Under `Cc1nn2c(N)c(C#N)cnc2c1-c1ccc(Cl)cc1` stands 6.12 µM; under `CCc1nc(SCC(=O)NC2CCCC2)c2oc3ccccc3c2n1`, > 40 µM (inactive). Under `COc1ccccc1Oc1ccc2c(c1)C(=O)N(c1ccccc1)C2=O` stands 2.24 µM. Under `O=C(CSc1nnnn1-c1ccc2c(c1)OCCO2)c1cccc2c1OCCO2` stands 2.98 µM; under `Cc1cc(C)c(N=C2SCC(=O)N2Cc2ccco2)c(C)c1`, 7.22 µM. With `CN(C)c1ccc(N=Nc2ccccc2C(=O)OCC(=O)N2CCCCCC2)cc1`, the IC50 entry was “inactive”. Consider `COc1ccc(C(=O)Nc2ccccc2C(=O)Nc2ccccc2)cc1`, for which the IC50 was 6.74 µM. With `CCOC(=O)c1c(-c2ccccc2)csc1NC(=O)c1cc(S(=O)(=O)N2CCOCC2)ccc1C`, the half-inhibitory concentration (IC50) is 4.51 µM. To `CC(C)Nc1nc(-c2cccnc2)nc(-c2ccc(Cl)cc2)c1C#N` belongs > 40 µM (inactive); to `CS(=O)(=O)Nc1ccc(-c2ccc(/C=C3\SC(N)=NC3=O)o2)cc1`, 8.42 µM. To `O=C(Nc1ccc(O)c(-c2nc3ccccc3s2)c1)C1=COCCO1` belongs “inactive”; to `CCOC(=O)c1sc(=NC(=O)c2ccc(OC(C)C)cc2)n(C)c1C`, 0.933 µM; to `Cc1cc(C)c2cc(C#N)c(SCC(=O)Nc3cc(C)on3)nc2c1`, 7.32 µM. `COc1ccc2[nH]c(C(=O)Nc3ccc(F)cc3Br)cc2c1`: the IC50 is > 40 µM (inactive). To `CCC(=O)c1ccc(OCC(=O)Nc2ccccc2C(=O)NC2CC2)cc1` belongs 4.7 µM. Under `O=C(COC(=O)c1ccccc1SCC(=O)NC1CCCCC1)NC1CCCCC1` stands 4.78 µM.

With `O=C(Nc1nc(-c2cccs2)c(-c2cccs2)s1)C1CCCC1`, the concentration for half-maximal inhibition (IC50) is 2.86 µM.

For the molecule `CCC(C)(C)c1ccc(OCCCC[n+]2ccc(C)cc2)c(C(C)(C)CC)c1`, the IC50 is > 40 µM (inactive). To `Cc1cccc2cc(C#N)c(SCC(=O)Nc3ccccc3N3CCOCC3)nc12` belongs “inactive”; to `COc1ccc(S(=O)(=O)N2CCc3ccccc32)cc1C(=O)Nc1ccc(NC(C)=O)cc1`, 5.19 µM.

For `Cc1ccc2nc(N3CCN(c4cccc(C)c4C)CC3)c3nnnn3c2c1`, the IC50 was 7.32 µM. For the molecule `CCOC(=O)c1nn(-c2ccc(F)cc2)c(=O)cc1OCC(=O)Nc1cccc(C)c1`, the IC50 was 9.68 µM. On to `COc1ccccc1NC(=O)c1sc2ncn(Cc3cccc4ccccc34)c(=O)c2c1C`, for which the IC50 was 2.38 µM. To `Cc1nc2ccc3nc(NC(=O)c4ccc5c(c4)OCCO5)sc3c2s1` belongs 9.57 µM; to `CCCCCCNC(=O)C(C#N)c1nc2ccccc2nc1N1CCOCC1` (configuration not stated), > 40 µM (inactive); to `c1ccc(N(c2ccccc2)c2nc(N3CCCC3)nc(-n3ccnc3)n2)cc1`, 1.14 µM.

On to `CCC(=O)c1cn(CC(=O)Nc2ccccc2Cl)c2ccccc12`, for which the IC50 is 3.98 µM. To `C/C(=N\NC(=O)COc1cccc(C)c1)c1ccc2ccccc2c1O` belongs 7.63 µM. Under `CCOc1ccc(N=Nc2c(=O)[nH]n3c(=O)cc(C)[nH]c23)cc1` stands > 40 µM (inactive). To `COCCn1c(=NC(=O)c2ccc3c(c2)OCCO3)sc2cc(S(N)(=O)=O)ccc21` belongs 4.94 µM. Take `O=C(NCc1ccco1)c1ccc(Cn2c(=O)c3ccccc3n(Cc3cccc(F)c3)c2=O)cc1`: the IC50 is 2.43 µM. Under `CCCC1(c2ccccc2)NC(=O)N(CC(=O)Nc2sc(-c3ccccc3)cc2C(=O)OCC)C1=O` (configuration not stated) stands “inactive”; under `COc1ccccc1CC1(C)C(=O)Nc2ccc(OC(F)(F)F)cc21` (configuration not stated), > 40 µM (inactive). Under `O=C(CCSc1nnc2scc(-c3ccccc3)n12)Nc1nc(-c2ccccc2)ns1` stands “inactive”.

Consider `COc1ccc2[nH]c(C(=O)Nc3ccc(C)c(F)c3)cc2c1`, for which the IC50 is 0.647 µM. To `COc1cccc(C(=O)n2ccc3ccc(-c4ccc5ccn(Cc6ccccc6)c5c4)cc32)c1` belongs 1.31 µM; to `CN(C)c1ccc(C=Cc2nccc3ccccc23)cc1`, > 40 µM (inactive); to `CC(C)(C)c1nc(SCC(=O)Nc2ccc3c(c2)OCCO3)c2ccccc2n1`, 0.88 µM. Under `COc1cc2c3nnc(-c4ccc(F)cc4)c-3cn(Cc3ccccc3F)c2cc1OC` stands 1.98 µM; under `COc1ccc(-n2c(SCC(=O)NC3CCCCC3)nc3ccsc3c2=O)cc1`, 5.08 µM. In the case of `COC(=O)Cn1c(=NC(=O)c2nc3ccccc3s2)sc2cc(S(C)(=O)=O)ccc21`, the IC50 was 0.402 µM. Under `C=CCNc1nc(NCc2ccc(NC(C)=O)cc2)c2sc(-c3ccccc3)cc2n1` stands 5.43 µM; under `O=C(Nc1ccc2c(c1)C(=O)NC2=O)c1cc(Cl)ccc1Cl`, “inactive”; under `CCC(=O)c1ccc(N2CCN(S(=O)(=O)c3ccccc3)CC2)c(F)c1`, 2.96 µM. For `O=C(/C=C/c1cccc2ccccc12)NCCC1=CCCCC1`, the IC50 is > 40 µM (inactive). To `CC[n+]1ccc(/C=C/c2c[nH]c3ccccc23)cc1` belongs “inactive”. To `Fc1cnc(N2CCc3ccccc32)nc1N1CCc2ccccc21` belongs 3.22 µM.

On to `CC(=O)c1ccc(N2CCN(c3ccc4cc(S(=O)(=O)N5CCC(C)CC5)ccc4n3)CC2)cc1`, for which the IC50 is 8.62 µM. Under `O=C(CSc1ncnc2c1oc1ccccc12)Nc1ccccc1F` stands 7.81 µM. Under `Cc1nc(SCC(=O)NC2CCCC2)c2oc3ccccc3c2n1` stands 7.45 µM; under `COc1ccc(NC(=O)NNC(=O)c2cc3ccccc3cc2O)cc1`, 9.78 µM; under `COc1ccc(-c2c(C)nc(N)nc2-c2ccc(OCc3ccc(C)cc3)cc2O)cc1OC`, > 40 µM (inactive).

On to `CC(C)(C)c1ccc(C(=O)c2c[nH]c(C(=O)NCc3cccs3)c2)cc1`, for which the IC50 was 3.88 µM. As to `Cc1cc(C)c2cc(C#N)c(SCC(=O)NCC3CCCO3)nc2c1` (configuration not stated), the IC50 is 3.95 µM.

Consider `COc1ccccc1N/C(N)=N/c1nc(CSc2ccc(C)cc2)cc(=O)[nH]1`, for which the IC50 was 4.19 µM. As for `Cc1cc(NC(=O)CSc2nc3cc(C)c(C)cc3cc2C)no1`, the IC50 was > 40 µM (inactive). For the molecule `O=S(=O)(N1CCCCC1)N1CCN(CC(O)COc2ccc3cc(Br)ccc3c2)CC1` (configuration not stated), the IC50 is > 40 µM (inactive). To `O=c1ccc(-c2ccc(S(=O)(=O)N3CCN(c4cccc(Cl)c4)CC3)o2)n[nH]1` belongs 1.9 µM; to `CCSC1=N/C(=C\C=C2/Oc3ccccc3N2CC)C(=O)S1`, 9.41 µM; to `COc1cc(/C=C(\C#N)c2nc3ccccc3o2)ccc1O`, 2.91 µM. Under `CCNc1ccc2noc3c2c1C(=O)c1ccccc1-3` stands > 40 µM (inactive); under `O=C(NCc1ccc2c(c1)OCO2)C1CCC(CNS(=O)(=O)c2cccc3nsnc23)CC1` (configuration not stated), > 40 µM (inactive). Regarding `COc1ccccc1NC(=O)c1sc(NC(=O)c2ccco2)c(C#N)c1C`, the IC50 is 3.15 µM. On to `CC(=O)Oc1ccc(/C=N\NC(=O)c2cc3c(ccc4ccccc43)o2)cc1`, for which the IC50 result was “inactive”. To `O=C(OCC(=O)N1CCN(S(=O)(=O)c2ccc(Cl)cc2)CC1)c1cc(Br)ccc1O` belongs 2.22 µM; to `Oc1ccc(Br)cc1C1Nc2ccccc2S1` (configuration not stated), 6.22 µM; to `CCCC(Oc1ccc(Br)cc1)c1nc2c3cc(OC)c(OC)cc3nc(=S)n2[nH]1` (configuration not stated), > 40 µM (inactive). On to `COc1ccc(CNC(=O)CCCn2c(=S)[nH]c3cc4c(cc3c2=O)OCO4)cc1`, for which the IC50 is 6.11 µM.

As to `Fc1cccc2sc(Nc3nc4c(F)cccc4s3)nc12`, the IC50 was 4.6 µM. To `CCN(CC)C(=O)CSc1nc(N)c(C#N)c(-c2cccs2)c1C#N` belongs 8.24 µM.

Take `CC(=O)c1cc2c(cc1N/C(=N/S(=O)(=O)c1ccc(C)cc1)c1ccc(Cl)cc1)OCO2`: the IC50 is > 40 µM (inactive).

`COc1ccc(CCn2c(-c3ccc(OC)cc3)nc3c(c(=O)c4ccccc4n3C)c2=O)cc1`: the IC50 was 7.79 µM.

`CN1C(=O)c2cc(NS(=O)(=O)c3ccc(F)cc3)ccc2OC[C@H]2O[C@@H](CC(=O)NCC(F)(F)F)CC[C@@H]21`: the IC50 is 1.62 µM. As to `NS(=O)(=O)c1ccc(CCNC(=O)c2cc(-c3ccccn3)nc3ccc(Br)cc23)cc1`, the IC50 was 3.78 µM. In the case of `O=S(=O)([N-]c1nc2ccccc2nc1-n1cc[n+](Cc2ccccc2)c1)c1ccc(Br)cc1`, the IC50 was 1.06 µM. In the case of `CCCCOC(=O)c1cc(C)nc2ccc(Br)cc12`, the IC50 result was “inactive”. Under `Cc1nonc1NC(=O)CSc1nc2c(C)cccc2cc1C#N` stands > 40 µM (inactive). To `CN(C)c1ccc(C=C2SC(=S)NC2=O)cc1` belongs “inactive”; to `CCc1ccc(-c2cc(C(F)(F)F)n3nc(C(=O)Nc4c(C)nn(Cc5ccccc5Cl)c4C)cc3n2)s1`, “inactive”; to `CCOC(=O)c1c(-c2ccccc2)csc1NC(=O)/C(C#N)=C/c1ccc(O)c(OC)c1`, 7.23 µM. Under `O=c1c2ccccc2nc2sc3ccccc3n12` stands > 40 µM (inactive); under `O=[N+]([O-])c1ccc(NCc2ccccc2)c2nonc12`, 1.2 µM; under `Cc1cc(C)c2nc(SCC(=O)NCC3CCCO3)c(C#N)cc2c1` (configuration not stated), “inactive”.

Regarding `CN1C(=O)c2cccc3c(N)ccc(c23)C1=O`, the IC50 entry was “inactive”.

On to `COC(=O)c1cccc(Cn2ccc3ccc(-c4ccc5ccn(C(=O)c6cccc(OC)c6)c5c4)cc32)c1`, for which the IC50 was > 40 µM (inactive).
